Source: patent US9399626B2, “2-thiopyrimidinones” (Pfizer Inc., priority 2011, dated 2016)
Counter-ions that a name gives are not always drawn.

target: T1, MPO (purified from human polynuclear leukocytes) (Homo sapiens, UniProt P05164); experiment: MPO Amplex Red Activity Assay; format: biochemical; conditions: Table 1, 2 μM H2O2, pH 7.4
T1 construct: purified from human polynuclear leukocytes; purchased Calbiochem/EMD Biosciences; host or cells: human polynuclear leukocytes (natural source)
Procedure, shortened: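 Human leukocyte MPO […] oxidises 30 μM Amplex Red with 2 μM H2O2 in 50 mM NaPi pH 7.4, 150 mM NaCl, 1 mM DTPA, 2% DMSO. Resorufin fluorescence (ex 530/em 580 nm) read every 20 s, minus catalase background. kobs from the first 600 s, corrected for auto-inactivation, fit versus [I] for kinact/KI.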

T1 sequence (P05164 279-745 limits assumed): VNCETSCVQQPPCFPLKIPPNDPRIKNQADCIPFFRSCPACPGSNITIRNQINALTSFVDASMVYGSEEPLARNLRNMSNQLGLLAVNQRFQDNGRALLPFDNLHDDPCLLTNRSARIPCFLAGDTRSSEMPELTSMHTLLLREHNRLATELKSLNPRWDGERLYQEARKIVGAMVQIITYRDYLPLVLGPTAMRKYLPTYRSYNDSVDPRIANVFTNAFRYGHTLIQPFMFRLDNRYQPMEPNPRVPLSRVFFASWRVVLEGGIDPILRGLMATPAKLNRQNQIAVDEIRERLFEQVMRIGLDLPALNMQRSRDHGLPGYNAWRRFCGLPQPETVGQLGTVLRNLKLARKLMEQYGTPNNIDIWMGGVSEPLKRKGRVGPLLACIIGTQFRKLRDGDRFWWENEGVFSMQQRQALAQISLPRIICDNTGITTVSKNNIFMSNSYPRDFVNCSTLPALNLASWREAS
T1 sequence (P05164 165-273 limits assumed): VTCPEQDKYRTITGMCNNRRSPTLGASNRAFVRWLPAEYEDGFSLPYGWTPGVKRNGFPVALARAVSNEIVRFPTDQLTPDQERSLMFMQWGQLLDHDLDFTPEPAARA

Row | SMILES | MPO kinact/Ki
1 | COc1ccc(Cl)cc1-c1cc(=O)[nH]c(=S)n1C[C@H]1CCCN1 [Example 122, 6-(5-chloro-2-methoxyphenyl)-1-[(2R)-pyrrolidin-2-ylmethyl]-2-thioxo-2,3-dihydropyrimidin-4(1H)-one hydrochloride] | 9310 1/s per M
2 | COc1ccc(C)cc1-c1cc(=O)[nH]c(=S)n1CCCN=C(N)N [Example 119, 2-{3-[6-(2-methoxy-5-methylphenyl)-4-oxo-2-thioxo-3,4-dihydropyrimidin-1(2H)-yl]propyl} guanidine] | 25600 1/s per M
3 | COc1ccc(Cl)cc1-c1cc(=O)[nH]c(=S)n1CCCN [Example 92, 1-(3-aminopropyl)-6-(5-chloro-2-methoxyphenyl)-2-thioxo-2,3-dihydropyrimidin-4(1H)-one hydrochloride] | 22100 1/s per M
4 | COc1cc(-c2cc(=O)[nH]c(=S)n2CC(N)=O)c(OC)cc1Cl [Example 229, 2-[6-(4-chloro-2,5-dimethoxyphenyl)-4-oxo-2-thioxo-3,4-dihydropyrimidin-1(2H)-yl]acetamide] | 5900 1/s per M
5 | COCCn1c(-c2c(F)cccc2OC)cc(=O)[nH]c1=S [Example 60, 6-(2-fluoro-6-methoxyphenyl)-1-(2-methoxyethyl)-2-thioxo-2,3-dihydropyrimidin-4(1H)-one] | 3470 1/s per M
6 | COCCn1c(-c2ccccc2CCO)cc(=O)[nH]c1=S [Example 46, 6-[2-(2-hydroxyethyl)phenyl]-1-(2-methoxyethyl)-2-thioxo-2,3-dihydropyrimidin-4(1H)-one] | 1110 1/s per M
7 | COCCn1c(-c2cccc3ncsc23)cc(=O)[nH]c1=S [Example 78, 6-(1,3-benzothiazol-7-yl)-1-(2-methoxyethyl)-2-thioxo-2,3-dihydropyrimidin-4(1H)-one] | 9730 1/s per M
8 | COc1ccc(-c2cc(=O)[nH]c(=S)n2CC(C)(C)CO)c(OC)c1 [Example 224, 6-(2,4-dimethoxyphenyl)-1-(3-hydroxy-2,2-dimethylpropyl)-2-thioxo-2,3-dihydropyrimidin-4(1H)-one] | 3280 1/s per M
9 | COCCn1c(-c2cc(Cl)cnc2OC)cc(=O)[nH]c1=S [Example 96, 6-(5-chloro-2-methoxypyridin-3-yl)-1-(2-methoxyethyl)-2-thioxo-2,3-dihydropyrimidin-4(1H)-one] | 2200 1/s per M
10 | COCCn1c(-c2ncccc2OC)cc(=O)[nH]c1=S [Example 20, 1-(2-methoxyethyl)-6-(3-methoxypyridin-2-yl)-2-thioxo-2,3-dihydropyrimidin-4(1H)-one] | 1330 1/s per M
11 | COc1ccc(C#N)cc1-c1cc(=O)[nH]c(=S)n1CCO [Example 163, 3-[3-(2-hydroxyethyl)-6-oxo-2-thioxo-1,2,3,6-tetrahydropyrimidin-4-yl]-4-methoxybenzonitrile] | 8090 1/s per M
12 | NC(=O)Cn1c(-c2ccc3c(c2)CCO3)cc(=O)[nH]c1=S [Example 37, 2-[6-(2,3-dihydro-1-benzofuran-5-yl)-4-oxo-2-thioxo-3,4-dihydropyrimidin-1(2H)-yl]acetamide] | 6460 1/s per M
13 | O=c1cc(-c2ccccc2OC(F)(F)F)n(CCO)c(=S)[nH]1 [Example 186, 1-(2-hydroxyethyl)-2-thioxo-6-[2-(trifluoromethoxy)phenyl]-2,3-dihydropyrimidin-4(1H)-one] | 3930 1/s per M
14 | COCCn1c(-c2ccc(OC)cc2F)cc(=O)[nH]c1=S [Example 316, 6-(2-fluoro-4-methoxyphenyl)-1-(2-methoxyethyl)-2-thioxo-2,3-dihydropyrimidin-4(1H)-one] | 3060 1/s per M
15 | COc1ccc(-c2cc(=O)[nH]c(=S)n2C[C@H](O)CN)c(OC)c1 [Example 197, 1-[(2R)-3-amino-2-hydroxypropyl]-6-(2,4-dimethoxyphenyl)-2-thioxo-2,3-dihydropyrimidin-4(1H)-one trifluoroacetate] | 5650 1/s per M
16 | NCCn1c(-c2ccccc2-n2nccn2)cc(=O)[nH]c1=S [Example 144, 1-(2-aminoethyl)-2-thioxo-6-[2-(2H-1,2,3-triazol-2-yl)phenyl]-2,3-dihydropyrimidin-4(1H)-one hydrochloride] | 6010 1/s per M
17 | COc1ccc(-c2cc(=O)[nH]c(=S)n2CC(N)=O)c(OC)c1 [Example 174, 2-[6-(2,4-dimethoxyphenyl)-4-oxo-2-thioxo-3,4-dihydropyrimidin-1(2H)-yl]acetamide] | 10500 1/s per M
18 | COc1ccc(-c2cc(=O)[nH]c(=S)n2CCNC2=NCCN2)c(OC)c1 [Example 250, 1-[2-(4,5-dihydro-1H-imidazol-2-ylamino)ethyl]-6-(2,4-dimethoxyphenyl)-2-thioxo-2,3-dihydropyrimidin-4(1H)-one] | 7510 1/s per M
19 | NCCn1c(-c2ccccc2OCC(N)=O)cc(=O)[nH]c1=S [Example 272, 2-{2-[3-(2-aminoethyl)-6-oxo-2-thioxo-1,2,3,6-tetrahydropyrimidin-4-yl]phenoxy}acetamide trifluoroacetate] | 3160 1/s per M
20 | NC(=O)Cn1c(-c2cccc3[nH]ccc23)cc(=O)[nH]c1=S [Example 29, 2-[6-(1H-indol-4-yl)-4-oxo-2-thioxo-3,4-dihydropyrimidin-1(2H)-yl]acetamide] | 14900 1/s per M
21 | COc1ccccc1-c1cc(=O)[nH]c(=S)n1CCCN=C(N)N [Example 103, 2-{3-[6-(2-methoxyphenyl)-4-oxo-2-thioxo-3,4-dihydropyrimidin-1(2H)-yl]propyl} guanidine] | 41800 1/s per M
22 | COCCn1c(-c2ncc[nH]2)cc(=O)[nH]c1=S [Example 154, 6-(1H-imidazol-2-yl)-1-(2-methoxyethyl)-2-thioxo-2,3-dihydropyrimidin-4(1H)-one] | 1070 1/s per M
23 | COc1ccc(-c2cc(=O)[nH]c(=S)n2CC2(O)CCNCC2)c(OC)c1 [Example 252, 6-(2,4-dimethoxyphenyl)-1-[(4-hydroxypiperidin-4-yl)methyl]-2-thioxo-2,3-dihydropyrimidin-4(1H)-one hydrochloride] | 2480 1/s per M
24 | COCCn1c(-c2ccc(OC(F)(F)F)cc2)cc(=O)[nH]c1=S [Example 210, 1-(2-methoxyethyl)-2-thioxo-6-[4-(trifluoromethoxy)phenyl]-2,3-dihydropyrimidin-4(1H)-one] | 968 1/s per M
25 | COc1ccc(-c2cc(=O)[nH]c(=S)n2CCOC(=O)CN)c(OC)c1 [Example 244, 2-[6-(2,4-dimethoxyphenyl)-4-oxo-2-thioxo-3,4-dihydropyrimidin-1(2H)-yl]ethyl glycinate tosylate] | 8970 1/s per M
26 | COc1ccc(-c2cc(=O)[nH]c(=S)n2CCN=C(N)N)c(OC)c1 [Example 7, 2-(2-(6-(2,4-dimethoxyphenyl)-4-oxo-2-thioxo-3,4-dihydropyrimidin-1(2H)-yl)ethyl)guanidine] | 10900 1/s per M
27 | CCOC(=O)Cn1c(-c2ccc(OC)cc2OC)cc(=O)[nH]c1=S [Example 221, ethyl [6-(2,4-dimethoxyphenyl)-4-oxo-2-thioxo-3,4-dihydropyrimidin-1(2H)-yl]acetate] | 6230 1/s per M
28 | COc1ccc(Cl)cc1-c1cc(=O)[nH]c(=S)n1CCCNC(N)=O [Example 148, 1-{3-[6-(5-chloro-2-methoxyphenyl)-4-oxo-2-thioxo-3,4-dihydropyrimidin-1(2H)-yl]propyl}urea] | 6690 1/s per M
29 | COc1ccc(C#N)cc1-c1cc(=O)[nH]c(=S)n1CC(N)=O [Example 170, 2-[6-(5-cyano-2-methoxyphenyl)-4-oxo-2-thioxo-3,4-dihydropyrimidin-1(2H)-yl]acetamide] | 4030 1/s per M
30 | COCCn1c(-c2ccccc2Cl)cc(=O)[nH]c1=S [Example 299, 6-(2-chlorophenyl)-1-(2-methoxyethyl)-2-thioxo-2,3-dihydropyrimidin-4(1H)-one] | 2060 1/s per M

same assay, conditions: Table 1A, 2 μM H2O2, pH 7.4

Row | SMILES | MPO kinact/Ki
31 | COc1ccc(-c2cc(=O)[nH]c(=S)n2CC(=O)NCC(F)(F)CN)c(OC)c1 [Example 443, N-(3-amino-2,2-difluoropropyl)-2-[6-(2,4-dimethoxyphenyl)-4-oxo-2-thioxo-3,4-dihydropyrimidin-1(2H)-yl]acetamide] | 7330 1/s per M
32 | COc1ccc(-c2cc(=O)[nH]c(=S)n2CC(=O)NCC(C)(C)N)c(OC)c1 [Example 429, N-(2-amino-2-methylpropyl)-2-[6-(2,4-dimethoxyphenyl)-4-oxo-2-thioxo-3,4-dihydropyrimidin-1(2H)-yl]acetamide] | 6620 1/s per M
33 | COc1ccc(-c2cc(=O)[nH]c(=S)n2CCC#N)c(OC)c1 [Example 408, 3-[6-(2,4-dimethoxyphenyl)-4-oxo-2-thioxo-3,4-dihydropyrimidin-1(2H)-yl]propanenitrile] | 9890 1/s per M
34 | COc1ccc(-c2cc(=O)[nH]c(=S)n2CCCN)c(OCCO)c1 [Example 402, 1-(3-aminopropyl)-6-[2-(2-hydroxyethoxy)-4-methoxyphenyl]-2-thioxo-2,3-dihydropyrimidin-4(1H)-one] | 4810 1/s per M
35 | NC(=O)Cn1c(-c2cc(F)ccc2OCCO)cc(=O)[nH]c1=S [Example 412, 2-{6-[5-fluoro-2-(2-hydroxyethoxy)phenyl]-4-oxo-2-thioxo-3,4-dihydropyrimidin-1(2H)-yl}acetamide] | 3980 1/s per M
